Experimental findings from patent US20260138988A1, “Spiropyrrolidine Derived Antiviral Agents” (Enanta Pharmaceuticals, Inc., priority 2021, published 2026) are described below.

The IC50 is the midpoint of a concentration-inhibition curve.

The experiment concerns the target SARS-CoV-2 3CL-protease (Severe acute respiratory syndrome coronavirus 2, UniProt P0DTD1). Kind of experiment: SARS-CoV-2 3C-Like (3CL) Protease Fluorescence Assay (FRET). Particulars: test compounds 0-10 μM, duplicate. The format is biochemical.
The mark [1] stands for this setting: SARS-CoV-2 3CL-protease 10 nM, read-out: IC50.

Read-outs that look alike come from different tables or passages of the source.

In the case of `CC(C)(C)C[C@H](NC(=O)[C@@H](NC(=O)C(F)(F)F)c1ccccc1)C(=O)N1C[C@]2(C[C@H]1C#N)C(=O)Nc1ccccc12` [Example 245], the IC50 under setting [1] was less than 100 nM.
For `CC(C)(C)C[C@H](NC(=O)[C@H](Cc1ccccc1)Nc1ccc(F)cc1)C(=O)N1C[C@]2(C[C@H]1C#N)C(=O)Nc1ccccc12` [Example 339], the 50% inhibitory concentration (IC50) under setting [1] is less than 100 nM.
For `CCCC(F)(F)C(=O)N[C@@H](C)C(=O)N(C)[C@@H](CC(C)C)C(=O)N1C[C@]2(C[C@H]1C#N)C(=O)Nc1ccccc12` [Example 277], the 50% inhibitory concentration (IC50) under setting [1] was less than 100 nM.
The same measure, in the same setting: the same measure for `C[C@@H]1CC[C@@H](C(=O)N(C)[C@@H](CC(C)(C)C)C(=O)N2C[C@]3(C[C@H]2C#N)C(=O)Nc2ccccc23)N1C` [Example 239]: less than 100 nM; for `C[C@H](NC(=O)C(C)(C)C)C(=O)N[C@@H](CC(C)(C)C)C(=O)N1C[C@]2(C[C@H]1C#N)C(=O)Nc1ccccc12` [Example 219]: less than 100 nM.
`CC(C)C[C@@H](C(=O)N1C[C@]2(C[C@H]1C#N)C(=O)Nc1ccccc12)N(C)C(=O)[C@H](C)NC(=O)C(F)(F)C(F)(F)C(F)(F)C(F)(F)F` [Example 144] came in with a half-maximal inhibitory concentration (IC50) (IC50, SARS-CoV-2 3CL-protease 10 nM) of less than 100 nM.
Regarding `COCCC(=O)N[C@@H](C)C(=O)N(C)[C@@H](CC(C)(C)C)C(=O)N1C[C@]2(C[C@H]1C#N)C(=O)Nc1ccccc12` [Example 262], under setting [1], the half-maximal inhibitory concentration (IC50) was less than 100 nM.
As for `CC(C)C[C@@H](C(=O)N1C[C@]2(C[C@H]1C#N)C(=O)Nc1ccccc12)N(C)C(=O)[C@H](C)NC(=O)C(F)(F)C1CCCC1` [Example 197], under setting [1], the 50% inhibitory concentration (IC50) was less than 100 nM.
For `C[C@H](NC(=O)c1cccc(-c2ccccc2)c1)C(=O)N(C)[C@@H](CC(C)(C)C)C(=O)N1C[C@]2(C[C@H]1C#N)C(=O)Nc1ccccc12` [Example 290], under setting [1], the half-inhibitory concentration (IC50) is less than 100 nM.
As to `CC(N[C@@H](C)C(=O)N(C)[C@@H](CC(C)(C)C)C(=O)N1C[C@]2(C[C@H]1C#N)C(=O)Nc1ccccc12)C(F)(F)F` (some centres unmarked) [Example 299], the IC50 under setting [1] was less than 100 nM.
With `CC(C)C[C@@H](C(=O)N1C[C@]2(C[C@H]1C#N)C(=O)Nc1ccccc12)N(C)C(=O)[C@@H]1[C@@H]2C[C@@H]2CN1C1CC1` [Example 252], under setting [1], the IC50 is 100 to 1000 nM.
Take `CC(C)C[C@@H](C(=O)N1C[C@]2(C[C@H]1C#N)C(=O)Nc1ccccc12)N(C)C(=O)[C@H](C)NC(=O)c1ccc(F)cc1C(F)(F)F` [Example 145]: the concentration for half-maximal inhibition (IC50) under setting [1] was less than 100 nM.
As to `CC(C)(C)C[C@H](NC(=O)[C@@H](Nc1ccccc1)C1CC1)C(=O)N1C[C@]2(C[C@H]1C#N)C(=O)Nc1ccccc12` [Example 340], the IC50 under setting [1] is less than 100 nM.
Regarding `CN(C(=O)[C@@H]1CC[C@@H](C2CC2)N1)[C@@H](CC(C)(C)C)C(=O)N1C[C@]2(C[C@H]1C#N)C(=O)Nc1ccccc12` [Example 228], the IC50 under setting [1] is less than 100 nM.
`CC(C)(C)C[C@H](NC(=O)[C@@H](NC(=O)C(F)(F)c1ccccc1)c1ccccc1)C(=O)N1C[C@]2(C[C@H]1C#N)C(=O)Nc1ccccc12` [Example 249]: the 50% inhibitory concentration (IC50) under setting [1] is less than 100 nM.
`CC(C)C[C@@H](C(=O)N1C[C@]2(C[C@H]1C#N)C(=O)Nc1ccccc12)N(C)C(=O)[C@@H]1C[C@H]2C[C@H]2N1C` [Example 260]: the IC50 under setting [1] is less than 100 nM.
Same read-out and setting: the same measure for `C[C@H](NC(=O)c1ccc(OC2CC2)c(OC2CC2)c1)C(=O)N(C)[C@@H](CC(C)(C)C)C(=O)N1C[C@]2(C[C@H]1C#N)C(=O)Nc1ccccc12` [Example 216]: less than 100 nM; for `CC(C)C[C@@H](C(=O)N1C[C@]2(C[C@H]1C#N)C(=O)Nc1ccccc12)N(C)C(=O)[C@H](C)NC(=O)C(C)(F)F` [Example 273]: less than 100 nM.
Take `CC(C)(C)C[C@H](NC(=O)[C@@H](NC(=O)c1ccc(F)cc1)c1ccccc1)C(=O)N1C[C@]2(C[C@H]1C#N)C(=O)Nc1ccccc12` [Example 247]: under setting [1], the IC50 is less than 100 nM.
Take `CC(C)C[C@@H](C(=O)N1C[C@]2(C[C@H]1C#N)C(=O)Nc1ccccc12)N(C)C(=O)[C@H](C)NC(=O)c1cccc(-c2ccc(C(F)(F)F)cc2)c1` [Example 147]: under setting [1], the half-maximal inhibitory concentration (IC50) was less than 100 nM.
Turning to `C[C@H](NC(=O)C(F)(F)C(F)(F)F)C(=O)N(C)[C@@H](CC(C)(C)C)C(=O)N1C[C@]2(C[C@H]1C#N)C(=O)N(Cl)c1ccc(Cl)cc12` [Example 172], under setting [1], the IC50 was less than 100 nM.
As to `C[C@H](NC(=O)c1cnn(-c2ccc(C(F)(F)F)cc2)c1)C(=O)N(C)[C@@H](CC(C)(C)C)C(=O)N1C[C@]2(C[C@H]1C#N)C(=O)Nc1ccccc12` [Example 221], under setting [1], the IC50 was less than 100 nM.
On the same count and under the same terms, the same measure for `COc1ccc(C(=O)N[C@@H](C)C(=O)N(C)[C@@H](CC(C)(C)C)C(=O)N2C[C@]3(C[C@H]2C#N)C(=O)Nc2ccccc23)c2ccccc12` [Example 293]: less than 100 nM; for `CC(C)C[C@@H](C(=O)N1C[C@]2(C[C@H]1C#N)C(=O)Nc1ccccc12)N(C)C(=O)[C@H](C)NC(=O)C12CC(F)(C1)C2` [Example 278]: less than 100 nM; for `C[C@H](NC(=O)C(F)(F)Cc1ccc(F)cc1)C(=O)N(C)[C@@H](CC(C)(C)C)C(=O)N1C[C@]2(C[C@H]1C#N)C(=O)Nc1ccccc12` [Example 243]: less than 100 nM.
For the compound `CC(C)C[C@@H](C(=O)N1C[C@]2(C[C@H]1C#N)C(=O)Nc1ccccc12)N(C)C(=O)[C@@H]1CC2(CCCC2)CN1C1CC1` [Example 256], the IC50 under setting [1] was less than 100 nM.
In the case of `CN(C(=O)[C@@H]1C[C@H](c2ccccc2)CN1)[C@@H](CC(C)(C)C)C(=O)N1C[C@]2(C[C@H]1C#N)C(=O)Nc1ccccc12` [Example 231], the IC50 under setting [1] is less than 100 nM.
Consider `CC(C)C[C@@H](C(=O)N1C[C@]2(C[C@H]1C#N)C(=O)Nc1ccccc12)N(C)C(=O)[C@@H]1CC[C@@H](c2ccc(F)cc2)N1C(C)C` [Example 238], for which, under setting [1], the concentration for half-maximal inhibition (IC50) was less than 100 nM.
With `C[C@H](NC(=O)C(C)(C)C)C(=O)N(C)[C@@H](CC(C)(C)C)C(=O)N1C[C@]2(C[C@H]1C#N)C(=O)Nc1ccccc12` [Example 209], the IC50 under setting [1] was less than 100 nM.
Turning to `CC[C@H](NC(=O)C(F)(F)F)C(=O)N(C)[C@@H](CC(C)C)C(=O)N1C[C@]2(C[C@H]1C#N)C(=O)Nc1ccccc12` [Example 199], under setting [1], the IC50 is less than 100 nM.
Consider `CC(C)(C)C[C@H](NC(=O)[C@H](CC1CC1)NC(=O)c1c[nH]cn1)C(=O)N1C[C@]2(C[C@H]1C#N)C(=O)Nc1ccccc12` [Example 325], for which the IC50 under setting [1] fell in the range of 100 to 1000 nM.
Regarding `CC(=O)Nc1cccn([C@H](CC(C)C)C(=O)N2C[C@]3(C[C@H]2C#N)C(=O)Nc2ccccc23)c1=O` [Example 358], the half-inhibitory concentration (IC50) under setting [1] is less than 100 nM.
`CC(C)C[C@@H](C(=O)N1C[C@]2(C[C@H]1C#N)C(=O)Nc1ccccc12)N(C)C(=O)[C@H](C)NC(=O)C1(F)CCCC1` [Example 143]: the concentration for half-maximal inhibition (IC50) under setting [1] is less than 100 nM.
As to `CC(C)N1[C@H](C(=O)N(C)[C@@H](CC(C)(C)C)C(=O)N2C[C@]3(C[C@H]2C#N)C(=O)Nc2ccccc23)C[C@@H]2CCCC[C@@H]21` [Example 180], the IC50 under setting [1] was less than 100 nM.
As to `CC(C)(C)C[C@H](NC(=O)[C@H](CC1CC1)NC(=O)C12CC(C)(C1)C2)C(=O)N1C[C@]2(C[C@H]1C#N)C(=O)Nc1ccccc12` [Example 317], the half-inhibitory concentration (IC50) under setting [1] was less than 100 nM.
Same read-out and setting: to `C[C@H](NC(=O)c1ccc(F)cc1)C(=O)N[C@@H](CC(C)(C)C)C(=O)N1C[C@]2(C[C@H]1C#N)C(=O)Nc1ccccc12` [Example 218] belongs less than 100 nM; to `C[C@H](NC(=O)c1ccc(C(F)(F)F)cc1)C(=O)N(C)[C@@H](CC(C)(C)C)C(=O)N1C[C@]2(C[C@H]1C#N)C(=O)Nc1ccccc12` [Example 286], less than 100 nM.
Take `CN(C(=O)[C@@H]1C[C@@H]2CCCC[C@@H]2N1C(=O)C(F)(F)F)[C@@H](CC(C)(C)C)C(=O)N1C[C@]2(C[C@H]1C#N)C(=O)Nc1ccccc12` [Example 177]: the concentration for half-maximal inhibition (IC50) under setting [1] fell in the range of 100 to 1000 nM.
Turning to `CC(C)(C)C[C@H](NC(=O)[C@H](CC1CC1)NC(=O)c1cccc2cc(F)ccc12)C(=O)N1C[C@]2(C[C@H]1C#N)C(=O)Nc1ccccc12` [Example 315], under setting [1], the 50% inhibitory concentration (IC50) was less than 100 nM.
In the case of `CCN1CC2(CCCC2)C[C@H]1C(=O)N(C)[C@@H](CC(C)C)C(=O)N1C[C@]2(C[C@H]1C#N)C(=O)Nc1ccccc12` [Example 257], under setting [1], the IC50 is less than 100 nM.
`C[C@@H]1NC(=O)CCCCCCc2ccc3c(c2)[C@@]2(C[C@@H](C#N)N(C2)C(=O)[C@H](CC(C)(C)C)NC1=O)C(=O)N3` [Example 379]: the IC50 under setting [1] is greater than 1000 nM.
Take `C[C@H](NC(=O)c1ccc(-c2ccccc2)cc1)C(=O)N(C)[C@@H](CC(C)(C)C)C(=O)N1C[C@]2(C[C@H]1C#N)C(=O)Nc1ccccc12` [Example 289]: the half-maximal inhibitory concentration (IC50) under setting [1] is less than 100 nM.
Same read-out and setting: to `CC(C)(C)C[C@H](NC(=O)[C@H](CC1CC1)NC(=O)c1cnn(C2CC2)c1)C(=O)N1C[C@]2(C[C@H]1C#N)C(=O)Nc1ccccc12` [Example 323] belongs less than 100 nM; to `C[C@H](NC(=O)c1ccc2c(c1)OC(F)(F)O2)C(=O)N(C)[C@@H](CC(C)(C)C)C(=O)N1C[C@]2(C[C@H]1C#N)C(=O)Nc1ccccc12` [Example 280], less than 100 nM.
Same read-out and setting: the same measure for `CCN1C[C@H]2CCCC[C@H]2C[C@H]1C(=O)N(C)[C@@H](CC(C)(C)C)C(=O)N1C[C@]2(C[C@H]1C#N)C(=O)Nc1ccccc12` [Example 179]: less than 100 nM; for `C[C@@H]1NC(=O)CCCCc2ccc3c(c2)[C@@]2(C[C@@H](C#N)N(C2)C(=O)[C@H](CC(C)(C)C)N(C)C1=O)C(=O)N3` [Example 377]: less than 100 nM; for `C[C@@H]1NC(=O)CCCc2ccc3c(c2)[C@@]2(C[C@@H](C#N)N(C2)C(=O)[C@H](CC(C)(C)C)N(C)C1=O)C(=O)N3` [Example 378]: less than 100 nM.
Take `CC(C)[C@H](Nc1ccc(F)cc1)C(=O)N[C@@H](CC(C)(C)C)C(=O)N1C[C@]2(C[C@H]1C#N)C(=O)Nc1ccccc12` [Example 337]: the 50% inhibitory concentration (IC50) under setting [1] is 100 to 1000 nM.
Regarding `CC(C)C[C@@H](C(=O)N1C[C@]2(C[C@H]1C#N)C(=O)Nc1ccccc12)N(C)C(=O)[C@H](C)NC(=O)c1ccc2c(c1)OCC2` [Example 190], the IC50 under setting [1] was less than 100 nM.
Regarding `C[C@H](NC(c1ccc(F)cc1)C(F)(F)F)C(=O)N(C)[C@@H](CC(C)(C)C)C(=O)N1C[C@]2(C[C@H]1C#N)C(=O)Nc1ccccc12` (some centres unmarked) [Example 302], the half-maximal inhibitory concentration (IC50) under setting [1] was less than 100 nM.
